In the NIST ThermoML archive (doi:10.1021/je101256z):
Values joined by “and” are separate entries in the source; they are usually repeats but may differ in a detail not shown here. Identical values can stand only once.

Conditions: Liquid, Vibrating wire viscometry

CC(C)CCCCCCCOC(=O)c1ccccc1C(=O)OCCCCCCCC(C)C
Conditions	viscosity
274.07 K, 100 kPa	606.7 mPa·s
274.35 K, 100 kPa	588.6 mPa·s
282.95 K, 100 kPa	270.2 mPa·s
283.03 K, 100 kPa	265.9 mPa·s
298.15 K, 200 kPa	87.63 mPa·s [middle of 8 runs]
298.15 K, 10000 kPa	112.08 mPa·s and 112.26 mPa·s
298.15 K, 20000 kPa	143.67 mPa·s and 143.41 mPa·s and 143.42 mPa·s
298.15 K, 40000 kPa	231.39 mPa·s [middle of 6 runs]
298.25 K, 100 kPa	87.67 mPa·s
305.15 K, 200 kPa	57.12 mPa·s [middle of 5 runs]
305.26 K, 100 kPa	57.43 mPa·s
313.15 K, 200 kPa	37.1 mPa·s [middle of 5 runs]
313.15 K, 10100 kPa	46.34 mPa·s and 46.33 mPa·s and 46.23 mPa·s
313.15 K, 20000 kPa	57.28 mPa·s and 57.35 mPa·s and 57.32 mPa·s
313.15 K, 40000 kPa	87.15 mPa·s and 87.13 mPa·s and 87.03 mPa·s
313.15 K, 59900 kPa	130.49 mPa·s and 130.29 mPa·s
313.15 K, 60000 kPa	130.33 mPa·s
313.15 K, 80000 kPa	194.08 mPa·s and 194.41 mPa·s and 195.2 mPa·s
313.27 K, 100 kPa	37.41 mPa·s
327.83 K, 100 kPa	19.32 mPa·s
343.15 K, 200 kPa	10.99 mPa·s [middle of 5 runs]
343.15 K, 10100 kPa	13.33 mPa·s and 13.35 mPa·s
343.15 K, 20100 kPa	15.85 mPa·s and 15.86 mPa·s
343.15 K, 40000 kPa	22.04 mPa·s and 22.05 mPa·s
343.15 K, 80100 kPa	41.22 mPa·s and 41.24 mPa·s
343.15 K, 137100 kPa	95.56 mPa·s and 95.61 mPa·s
343.24 K, 100 kPa	11.1 mPa·s
343.33 K, 100 kPa	11.09 mPa·s
343.53 K, 100 kPa	11.15 mPa·s
368.15 K, 300 kPa	5.65 mPa·s
368.21 K, 100 kPa	5.627 mPa·s
368.54 K, 100 kPa	5.577 mPa·s
373.15 K, 300 kPa	5.04 mPa·s and 5.05 mPa·s and 4.92 mPa·s
373.15 K, 20100 kPa	6.876 mPa·s and 6.866 mPa·s
373.15 K, 40000 kPa	9.055 mPa·s and 9.075 mPa·s and 9.085 mPa·s
373.15 K, 80100 kPa	15.22 mPa·s and 15.23 mPa·s
373.15 K, 137200 kPa	30.11 mPa·s and 30.12 mPa·s and 30.15 mPa·s

Cc1cccc2ccccc12 [1-methylnaphthalene]
298.15 K
Conditions	viscosity
200 kPa	2.9 mPa·s and 2.89 mPa·s
1000 kPa	2.94 mPa·s and 2.93 mPa·s and 2.92 mPa·s
10000 kPa	3.24 mPa·s
39900 kPa	4.4 mPa·s and 4.41 mPa·s
40000 kPa	4.42 mPa·s
79900 kPa	6.65 mPa·s and 6.67 mPa·s
80000 kPa	6.68 mPa·s and 6.65 mPa·s
120100 kPa	10.17 mPa·s and 10.12 mPa·s
